{"source": "patent EP4717277A1", "about": "“USE OF DRUG CONJUGATE IN TREATING TUMOR DISEASE AND METHOD THEREFOR” (Sichuan Kelun-Biotech Biopharmaceutical Co., Ltd., priority 2023, dated 2024)", "key": {"[1]": {"assay": "Clinical trial, pharmacokinetic study of the dose-escalation cohort", "assay_type": "in vivo, human", "settings": "patients, first 4-week cycle", "procedure": "Based on the patient's weight, a dose escalation design with five dose cohorts of 2, 4, 6, 9 and 12 mg/kg was employed, which were injected intravenously once every two weeks, every 28 days as a cycle, and were given every cycle until the disease progressed or an intolerable toxic reaction occurred. The toxicity of all planned dose groups and some intermediate dose groups was evaluated by BLRM. Based on the model analysis, the sponsor and the researcher jointly decided the decision of dose increase."}, "[2]": {"assay": "Toxicokinetic behavior of the conjugate and released toxin molecules after repeated intravenous dosing", "assay_type": "in vivo, cynomolgus monkeys", "settings": "after the last dosing with 50 mg/kg conjugate A", "procedure": "The cynomolgus monkeys were divided into four groups according to different doses: control group, 25 mg/kg dose group, 50 mg/kg dose group and 75 mg/kg dose group, with 5 males and 5 females in each group. […] For the monkeys in each group, blood samples were collected before and immediately after, and 4 h, 24 h, 48 h, 96 h and 168 h after the first and last dosing (0-1 min after the end of dosing), 1 h before and immediately after the second and third dosing (0-1 min after the end of dosing), and 336 h after the last dosing."}}, "data": [{"smiles": "CC[C@@]1(O)C(=O)OCc2c1cc1n(c2=O)Cc2c-1nc1ccccc1c2CCN(C(C)C)S(C)(=O)=O", "note": "[toxins]", "values": [{"measurement": "plasma exposure of free payload (area under the curve (AUC)) relative to that of Conjugate A", "setting": "[1]", "result": "~5", "unit": "%"}, {"measurement": "plasma exposure of free payload (maximum plasma concentration (Cmax)) relative to that of Conjugate A", "setting": "[1]", "result": "approximately 6%"}, {"measurement": "exposure to the toxin molecules", "setting": "[2]; female monkeys", "result": 3850, "unit": "ng·h/mL"}, {"measurement": "exposure to the toxin molecules", "setting": "[2]; male monkeys", "result": 5860, "unit": "ng·h/mL"}]}]}
